From patent US4448729A, “Leucotriene antagonists” (American Home Products Corporation, priority 1982, dated 1984)
Where a name gives a salt, the structure may show the parent alone. Read-outs that look alike come from different tables or passages of the source.

Key:
[1] = system: anaphylactic tissue response; assay: anaphylactic tissue response / leucotriene activity of nitro substituted compounds; type: cell-based
[2] = system: sensitized guinea pig trachea; assay: Schultz-Dale reaction, sensitized guinea pig trachea (tracheal spirals), ovalbumin challenge; type: cell-based; conditions: Cavia porcellus; for inhibition at 10 µM: 10^-5 M; for inhibition at 1 µM: 10^-6 M
Method: The antiallergy activity of the compounds of this invention was established by the Schultz-Dale reaction employing sensitized guinea pig trachea by the following procedure:
(§1) Guinea pigs weighing from about 275 to 325 g. are sensitized to ovalbumin. Three to four weeks later, tracheae are removed under CO2 anesthesia. Excess tissue is removed and each trachea is spirally cut and suspended under 6 g. tension in a tissue bath (37° C.) containing modified Tyrode's solution (pH 7.4) oxygenated with a 95 percent O2 -5 percent CO2 gas mixture. The Tyrodes composition (mmol) is: NaCl, 139.2; KCl, 2.7; MgSO4.7H2 O, 0.49; NaHCO3, 11.9; NaH2 PO4.H2 O, 0.4; CaCl2.2H2 O, 1.8 and glucose, 5.5. Tracheae are allowed to equilibrate for 90 minutes before exposure to agonists or drugs.
A response to histamine is elicited at two bath concentrations (1×10^-6 M and 1×10^-4 M). The lower concentration primes the tissue and is allowed a 5 minute contact period. The higher concentration (10 minute exposure) produces a maximal response for the tissue. In each case, the bath fluid is replaced and the tissue is washed two times with fresh Tyrode solution. Compounds tested are introduced into the bath to produce a 10^-4 M concentration twenty minutes after the second histamine treatment (subsequent testing at 10^-5 and 10^-6 M bath concentrations are employed in dose-response analyses). Ovalbumin (8 μg/ml) is introduced into the bath ten minutes later.
The contracture curve following antigen challenge is compared with the maximal histamine response at 10 minute time intervals up to 90 minutes and the responses are expressed as percentage inhibition. The area under the curve is calculated for each time period. […] The EC50 is calculated from the area under the curve values at 90 minutes to define the effective concentration of test compound which produces a 50 percent reduction in area under the curve compared to control tissues.

[3] = molecular target: T1, (Cavia porcellus, UniProt Q2NNR5); assay: Schultz-Dale reaction, guinea pig ileal tissue, inhibition of leucotriene D4; type: cell-based; conditions: Schultz-Dale reaction employing guinea pig ileal tissue; read-out: pA2 as inhibitor of leucotriene D4 (converted)
T1 construct: employing guinea pig ileal tissue; from tissue; host or cells: guinea pig ileum
T1 sequence (Q2NNR5 1-340): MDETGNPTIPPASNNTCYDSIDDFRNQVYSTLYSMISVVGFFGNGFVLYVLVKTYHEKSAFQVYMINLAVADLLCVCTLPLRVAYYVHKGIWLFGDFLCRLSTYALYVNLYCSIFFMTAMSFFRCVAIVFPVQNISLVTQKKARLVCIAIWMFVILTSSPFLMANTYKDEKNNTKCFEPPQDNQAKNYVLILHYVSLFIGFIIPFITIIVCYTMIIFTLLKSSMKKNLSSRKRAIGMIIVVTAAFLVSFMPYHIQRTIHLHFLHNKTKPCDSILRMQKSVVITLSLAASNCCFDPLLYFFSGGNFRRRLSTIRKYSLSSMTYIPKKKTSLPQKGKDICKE

[4] = system: guinea pig lung parenchyma strips; assay: Schultz-Dale reaction, guinea pig lung parenchyma strips, ovalbumin challenge; type: cell-based; conditions: Cavia porcellus, 1 h, at 60 minutes, read-out: Parenchymal Strips % Inhibition at 60 minutes; for inhibition at 100 µM: 10^-4 M
Method: as §1
Following the same basic procedure, guinea pig lung parenchyma strips (25×3×3 mm) dissected along the distal edges of two different lobes are suspended under 1 g. tension in the tissue bath. Equilibration in the Tyrode solution is conducted for 45 minutes with complete solution changes at 15 minute intervals. Maximal contraction induced with histamine (50 μM) primes the tissue. Five minutes later, the bath fluid is exchanged two times and the tissues are allowed to equilibrate 15 minutes longer. The test compound is then introduced into the bath to give a 10^-4 M solution. Five minutes later the ovalbumin challenge (8 μg/ml) is given. The data is collected at ten minute intervals up to 60 minutes and analysed as with the guinea pig trachea technique.

SRS-A = conditions: J.Med.Chem. 20 371 (1977); cited from earlier work
[5] = 1.5 h, 10^-4 M, at 90 minutes, read-out: Tracheal Spirals % Inhibition at 90 minutes
[6] = 1.5 h, 50 percent reduction in area under the curve at 90 minutes, read-out: Tracheal Spirals EC50

SMILES | inhibition at 100 µM [2, 5] [%] | inhibition at 10 µM ([2]; 1.5 h, at 90 minutes) [%] | inhibition at 1 µM ([2]; 1.5 h, at 90 minutes) [%] | EC50 [2, 6] [µM] | further results
CCCc1c(OCC(O)CNc2cccc([N+](=O)[O-])c2C#N)ccc(C(C)=O)c1O (centres unmarked) [2-[[3-(4-acetyl-3-hydroxy-2-propylphenoxy)-2-hydroxypropyl]amino]-6-nitrobenzonitrile] |  |  |  |  | effect on anaphylactic tissue response [1]: potentiator of the anaphylactic tissue response
CCCc1c(OCC(O)COc2cccc(N)c2C#N)ccc(C(C)=O)c1O (centres unmarked) [Example 1, 2-[3-(4-Acetyl-3-hydroxy-2-propylphenoxy)-2-hydroxypropoxy]-6-aminobenzonitrile] | 64.2 | 45.7 | 20.6 | 20 | 
CCCc1c(OCC(O)COc2cccc(NC(=O)C(=O)OCC)c2C#N)ccc(C(C)=O)c1O (centres unmarked) [Example 2, [[3-[3-(4-Acetyl-3-hydroxy-2-propylphenoxy)-2-hydroxypropoxy]-2-cyanophenyl]amino]oxoacetic acid ethyl ester] | 73 | 63 | 18.8 | 8.7 | Kb [3]: 0.000398 µM; inhibition at 100 µM [4]: 65.5%; inhibition at 10 µM ([4]; 10^-5 M): 2.09%
CCCc1c(OCC(O)COc2cccc(NC(=O)C(=O)O)c2C#N)ccc(C(C)=O)c1O (centres unmarked) [Example 3, [[3-[-(4-Acetyl-3-hydroxy-2-propylphenoxy)-2-hydroxypropoxy]-2-cyanophenyl]amino]oxoacetic acid sodium salt] | 62.1 | 21.5 | 12.8 | 53 | inhibition at 100 µM [4]: 22.9%
CCCc1c(OCC(O)COc2cccc(N)c2)ccc(C(C)=O)c1O (centres unmarked) [Example 4, 1-[2-Hydroxy-3-propyl-4-[2-hydroxy-3-(3-aminophenoxy)propoxy]phenyl]ethanone] | 76.2 | 9.07 | 4.98 | 36 | 
CCCc1c(OCC(O)COc2cccc(NC(=O)C(=O)OCC)c2)ccc(C(C)=O)c1O (centres unmarked) [Example 5, [[3-[3-(4-Acetyl-3-hydroxy-2-propylphenoxy)-2-hydroxypropoxy]phenyl]amino]oxoacetic acid ethyl ester] | 53 | 22.8 | 8.57 | 97 | 
CCCc1c(OCC(O)CNc2cccc(N)c2C#N)ccc(C(C)=O)c1O (centres unmarked) [Example 6, 2-Amino-6-[[3-(4-acetyl-3-hydroxy-2-propylphenoxy)-2-hydroxypropyl]amino]benzonitrile] | 38.8 |  |  |  | 
CCCc1c(OCC(O)CNc2cccc(NC(=O)C(=O)OCC)c2C#N)ccc(C(C)=O)c1O (centres unmarked) [Example 7, [[[3-[3-(4-acetyl-3-hydroxy-2-propylphenoxy)-2-hydroxypropyl]amino]-2-cyanophenyl]amino]oxoacetic acid ethyl ester] | 63.8 | 39.3 | 2.64 | 30 | 
CCCc1c(OCC(O)CNc2cccc(NC(=O)C(=O)O)c2C#N)ccc(C(C)=O)c1O (centres unmarked) [Example 8, [[[3-[3-(4-Acetyl-3-hydroxy-2-propylphenoxy)-2-hydroxypropyl]amino]-2-cyanophenyl]amino]oxoacetic acid sodium salt] | 63.5 | 37.5 | 28.4 | 25 | 
CCCc1c(OCC(O)CNc2cccc(N)c2C(N)=O)ccc(C(C)=O)c1O (centres unmarked) [Example 9, 2-[3-(4-Acetyl-3-hydroxy-2-propylphenoxy)-2-hydroxypropyl]amino-6-aminobenzamide] | 40.7 |  |  |  | 
CC(=O)c1ccc(OCC(O)COc2cccc([N+](=O)[O-])c2)cc1O (centres unmarked) [Example 10, 1-[2-Hydroxy-4-[2-hydroxy-3-(3-nitrophenoxy)propoxy]phenyl]ethanone] |  |  |  |  | inhibition at 100 µM ([2]; 10^-4 M concentration, sensitized guinea pig trachea, read-out: percent inhibition in the Schultz-Dale reaction): 62%; EC50 ([2]; sensitized guinea pig trachea, read-out: EC50 in the Schultz-Dale reaction): 76 µM
CCCc1c(OCC(O)COc2ccc3c(=O)cc(C(=O)[O-])oc3c2CCC)ccc(C(C)=O)c1O.[Na+] (centres unmarked) [FPL 55712, sodium 7-[3-(4-acetyl-3-hydroxy-2-propylphenoxy)-2-hydroxypropoxy]-4-oxo-8-propyl-4H-1-benzopyran-2-carboxylate] |  |  |  |  | antagonism of SRS-A (SRS-A): specific antagonist of SRS-A
